Key:
Assay type in all cases: in vivo
[1] = test system: Erysiphe graminis f. sp. tritici; test: Test A: preventive control of wheat powdery mildew on wheat seedlings; set-up: concentration or dose not given beside the values; details: sprayed day before inoculation, rated after 7 days, rate not given
[2] = test system: Puccinia recondita; test: Test B: preventive control of wheat leaf rust on wheat seedlings; set-up: concentration or dose not given beside the values; details: sprayed day before inoculation, rate not given
[3] = test system: Pyricularia oryzae; details: rice seedlings, sprayed day before inoculation; rate not given
[4] = test system: Phytophthora infestans; details: tomato (or potato) seedlings, sprayed day before inoculation; rate not given
[5] = test system: Plasmopara viticola; test: Test E: preventive control of grape downy mildew on grape seedlings; details: sprayed day before inoculation, rate not given
[6] = test system: Phytophthora infestans; test: whole plant or invertebrate; details: for pest or weed control at 100 g/ha: Phytophthora infestans, in Solanum tuberosum, 120 h, read-out: Test F disease control rating; for Test F disease control rating: 100 g/ha on potato seedlings, sprayed day after inoculation
[7] = test system: Plasmopara viticola; test: Test G: curative control of grape downy mildew on grape seedlings (sprayed after inoculation); details: sprayed day after inoculation, rate not given

CC(NC(=O)c1c(Cl)ccnc1Cl)c1ncc(Cl)cc1Cl (racemic) [Compound 1, 2,4-Dichloro-N-[1-(3,5-dichloro-2-pyridinyl)ethyl]-3-pyridinecarboxamide]
Test A disease control rating [1]: 0% | Test B disease control rating [2]: 38% | Test C disease control rating [3]: 0% | Test D disease control rating [4]: 100% | Test E disease control rating [5]: 99% | pest or weed control at 100 g/ha [6]: 87% | Test G disease control rating [7]: 100%

CC(NC(=O)c1c(Cl)ccnc1Cl)c1ncc(Br)cc1Cl (racemic) [Compound 2, N-[1-(5-bromo-3-chloro-2-pyridinyl)ethyl]-2,4-dichloro-3-pyridinecarboxamide]
Test A disease control rating [1]: 0% | Test B disease control rating [2]: 19% | Test C disease control rating [3]: 0% | Test D disease control rating [4]: 100% | Test E disease control rating [5]: 100% | pest or weed control at 100 g/ha [6]: 93% | Test G disease control rating [7]: 100%

CC(NC(=O)c1c(Cl)ccnc1Cl)c1ncc(I)cc1Cl (stereo not shown) [Compound 3, N-[1-(3-chloro-5-iodo-2-pyridinyl)ethyl]-2,4-dichloro-3-pyridinecarboxamide]
Test A disease control rating [1]: 0% | Test B disease control rating [2]: 19% | Test D disease control rating [4]: 100% | Test E disease control rating [5]: 95% | pest or weed control at 100 g/ha [6]: 88% | Test G disease control rating [7]: 100%

O=C(NCc1ncc(Cl)cc1Cl)c1c(Cl)ccnc1Cl [Compound 4, 2,4-Dichloro-N-[(3,5-dichloro-2-pyridinyl)methyl]-3-pyridinecarboxamide]
Test A disease control rating [1]: 0% | Test B disease control rating [2]: 9% | Test D disease control rating [4]: 100% | Test E disease control rating [5]: 70% | pest or weed control at 100 g/ha [6]: 100% | Test G disease control rating [7]: 100%

CC(NC(=O)c1c(Cl)ccnc1Cl)c1ncc(F)cc1Cl (stereo not shown) [Compound 5]
Test A disease control rating [1]: 0% | Test B disease control rating [2]: 0% | Test D disease control rating [4]: 100% | Test E disease control rating [5]: 70% | Test F disease control rating [6]: 100% | Test G disease control rating [7]: 99%

O=C(NCc1ncc(Cl)cc1Br)c1c(Cl)ccnc1Cl [Compound 6]
Test A disease control rating [1]: 0% | Test B disease control rating [2]: 0% | Test D disease control rating [4]: 100% | Test E disease control rating [5]: 70% | Test F disease control rating [6]: 100% | Test G disease control rating [7]: 99%

CC(NC(=O)c1c(Cl)ccnc1Cl)c1ncc(Br)cc1Br (stereo not shown) [Compound 7]
Test A disease control rating [1]: 0% | Test B disease control rating [2]: 45% | Test D disease control rating [4]: 100% | Test E disease control rating [5]: 100% | Test F disease control rating [6]: 100% | Test G disease control rating [7]: 100%

O=C(NCc1ncc(Cl)cc1I)c1c(Cl)ccnc1Cl [Compound 8]
Test A disease control rating [1]: 0% | Test B disease control rating [2]: 0% | Test D disease control rating [4]: 100% | Test E disease control rating [5]: 100% | Test F disease control rating [6]: 100% | Test G disease control rating [7]: 36%

O=C(NCc1ncc(Br)cc1Cl)c1c(Cl)ccnc1Cl [Compound 9, N-[(5-bromo-3-chloro-2-pyridinyl)methyl]-2,4-dichloro-3-pyridinecarboxamide]
Test A disease control rating [1]: 0% | Test B disease control rating [2]: 9% | Test D disease control rating [4]: 100% | Test E disease control rating [5]: 88% | pest or weed control at 100 g/ha [6]: 99% | Test G disease control rating [7]: 99%

Cc1cnc(C(C)NC(=O)c2c(Cl)ccnc2Cl)c(C)c1 (stereo not shown) [Compound 10]
Test A disease control rating [1]: 0% | Test B disease control rating [2]: 0% | Test D disease control rating [4]: 99% | Test E disease control rating [5]: 57% | Test F disease control rating [6]: 0% | Test G disease control rating [7]: 0%

CC(NC(=O)c1c(Cl)ccnc1Cl)c1ncc(OC(F)F)cc1Cl (stereo not shown) [Compound 11]
Test A disease control rating [1]: 0% | Test B disease control rating [2]: 0% | Test D disease control rating [4]: 100% | Test E disease control rating [5]: 100% | Test F disease control rating [6]: 93% | Test G disease control rating [7]: 100%

O=C(NCc1ncc(I)cc1Cl)c1c(Cl)ccnc1Cl [Compound 12, N-[(3-chloro-5-iodo-2-pyridinyl)methyl]-2,4-dichloro-3-pyridinecarboxamide]
Test A disease control rating [1]: 0% | Test B disease control rating [2]: 0% | Test D disease control rating [4]: 100% | Test E disease control rating [5]: 59% | pest or weed control at 100 g/ha [6]: 98% | Test G disease control rating [7]: 63%

Cc1cc(Cl)c(C(=O)NC(C)c2ncc(Br)cc2Cl)c(Cl)n1 (stereo not shown) [Compound 13]
Test A disease control rating [1]: 0% | Test B disease control rating [2]: 68% | Test D disease control rating [4]: 100% | Test E disease control rating [5]: 100% | Test F disease control rating [6]: 100% | Test G disease control rating [7]: 100%

Cc1cc(Cl)c(C(=O)NCc2ncc(Br)cc2Cl)c(Cl)n1 [Compound 14, N-[(5-bromo-3-chloro-2-pyridinyl)methyl]-2,4-dichloro-6-methyl-3-pyridinecarboxamide]
Test A disease control rating [1]: 0% | Test B disease control rating [2]: 41% | Test D disease control rating [4]: 100% | Test E disease control rating [5]: 100% | pest or weed control at 100 g/ha [6]: 98% | Test G disease control rating [7]: 100%

Cc1cc(Cl)c(C(=O)NC(C)c2ncc(I)cc2Cl)c(Cl)n1 (stereo not shown) [Compound 15, N-[1-(3-chloro-5-iodo-2-pyridinyl)ethyl]-2,4-dichloro-6-methyl-3-pyridinecarboxamide]
Test A disease control rating [1]: 0% | Test B disease control rating [2]: 0% | Test D disease control rating [4]: 100% | Test E disease control rating [5]: 100% | pest or weed control at 100 g/ha [6]: 70% | Test G disease control rating [7]: 100%

Cc1cc(Cl)c(C(=O)NCc2ncc(I)cc2Cl)c(Cl)n1 [Compound 16, N-[(3-chloro-5-iodo-2-pyridinyl)methyl]-2,4-dichloro-6-methyl-3-pyridinecarboxamide]
Test A disease control rating [1]: 0% | Test B disease control rating [2]: 32% | Test D disease control rating [4]: 100% | Test E disease control rating [5]: 100% | pest or weed control at 100 g/ha [6]: 83% | Test G disease control rating [7]: 95%

Cc1cc(Cl)c(C(=O)NC(C)c2ncc(I)cc2Br)c(Cl)n1 (stereo not shown) [Compound 43]
Test A disease control rating [1]: 0% | Test D disease control rating [4]: 100% | Test E disease control rating [5]: 100% | Test F disease control rating [6]: 90% | Test G disease control rating [7]: 100%
